Reference: patent US4716153A, “Stable oral preparation of macrolide antibiotics and method for stabilizing the same” (priority 1982, dated 1987)
Like-named read-outs stand apart in the source and are kept apart here.

How the values were obtained:
[1] = Elution rate in aqueous solutions of various pH and physiological saline solution; format: physicochemical
Method: After 40 ml of Japan Pharmacopoeia 1st solution (pH 1.2) was placed in a vessel whose temperature was kept constant in a thermostat at 37° C., 200 mg of TMS-19-Q was added and the mixture was stirred by a magnetic stirrer. […] Then, Japan Pharmacopoeia 2nd solution were mixed with the 1st solution, and by using aqueous solutions whose pH values were adjusted to be 2, 3, 4 and 5 and a physiological saline solution, respectively, elution rate of each thereof was measured.
To 40 ml of Japan Pharmacopoeia 1st solution (pH 1.2), 120 ml of water was added, and after the solution was kept in a constant temperature bath controlled at 37° C., 200 mg of midecamycin was added, and the mixture was stirred by a magnetic stirrer. Then, 5 ml aliquots of the solution were sampled in a lapse of time (at 5 minutes, 15 minutes and 30 minutes), and absorbances were measured (wavelength: 232 nm) and elution rate were calculated. Then, Japan Pharmacopoeia 1st solution and Japan Pharmacopoeia 2nd solution were mixed to prepare aqueous solutions whose pH values were adjusted to be 2, 3, 4 and 5, respectively. By using these solutions and physiological saline solution, the elution rates were calculated following the same procedures as those indicated above.
By following the same procedures and under the same conditions as those of Example 31, elution rates of 9-propionyljosamycin were measured.
By following the same procedures and under the same conditions as those of Example 31, elution rates of josamycin were measured.
In addition to the conditions of Example 31, Japan Pharmacopoeia 1st solution and Japan Parmacopoeia 2nd solution were mixed to prepare an aqueous solution having pH of 2.5, and following the same procedures as those of Example 31, elution rates of 9,3"-diacetylmidecamycin were measured.

[2] = AUC after oral administration of tablets to beagle dogs (bioassay of blood); format: in vivo; conditions: for AUC at 6 h: dog, blood, po, 500 mg
Method: An amount of the dissolution accelerators used, showing pH 2.5-4 in an aqueous solution will be described in detail. […] In all of these cases, the elution rate of 3"-propionylleucomycin A5 is less than 60%. […] In order to obtain their good absorbability, generally, it is necessary to use the pH at which the elution rate is favorable. […] The accelerators need to be used in 5-100 mg in formulating preparations. It is particularly preferred that these dissolution accelerators, for example tartaric acid and citric acid are used in a total amount of 40-100 mg at single administration. That is, one tablet is allowed to contain about 40-100 mg in the administration of one tablet a time, and about 20-50 mg each in two tablets a time. It is also particularly preferred, when the antibiotics are applied orally in the form of powders, fine granules, capsules, granules or dry syrups, that the accelerators are used in approximately 40-100 mg to the 16-membered ring macrolide antibiotics given in a 200 mg potency a time. It is suitable for preservation that these dissolution accelerators are used coated with film-forming substances by a microcapsulization technique using the accelerators as core materials.
To a mixture comprising TMS-19-Q and light anhydrous silicic acid, 10% w/w HPMC aqueous solution was added. Then the mixture was kneaded, dried and sieved by the use of a 24 mesh sieve to obtain Granule A.
To a mixture comprising glycine, citric acid anhydride and light silicic acid, 5% w/w HPMC aqueous solution was added as binder, and the mixture was made into granules by fluidized bed method (FB method). Then the granules were dried and sieved through 24 mesh screen to obtain Granule B.
To Granule A and Granule B, L-HPC and Avicel PH301 (to be adjusted by an amount of citric acid added: 52.7-12.7 g) and magnesium stearate were added and mixed. Then, the mixed powder was molded by pressure to the size of 14×8 mm and tablets were obtained, each of which (430 mg) containing 100 mg potency of TMS-19-Q 170 mg glycine and citric acid (0, 10, 20, 30 and 40 mg).

In the case of `CCCC(=O)OC1C(C)OC(OC2C(C)OC(OC3C(CC=O)CC(C)C(O)/C=C/C=C/CC(C)OC(=O)CC(O)C3OC)C(O)C2N(C)C)CC1(C)OC(=O)CC` (centres unmarked) [TMS-19-Q, 3"-propionyl leucomycin A5], the “elution rate, pH 1.2, 2 and 3” value ([1]; initial pH 1.2, 2 and 3, after 15-minute stirring, 37° C.) is reported as ≥ 90%, the “elution rate, pH 4 and 5” value ([1]; initial pH 4 and 5, after 15-minute stirring, 37° C.) is reported as 40-45% and the “elution rate in pH 1.2-3 acidic aqueous solution (summary)” value ([1]; pH 1.2-3, general description) is reported as “more than 95%”. For the same compound, the “elution rate in pH 4-5 weak acidic aqueous solution (summary)” value ([1]; pH 4-5, general description) was “less than 50%”, the “elution rate, physiological saline solution” value ([1]; physiological saline solution, after 15-minute stirring, 37° C.) was 10% and the “elution rate in physiological saline solution (summary)” value ([1]; physiological saline solution, general description) was “less than 15%”. For the same compound, the “time within which elution was nearly completed” value ([1]; solutions whose pH is equal to or less than 4.5) was ≤ 15 min, the “AUC versus amount of citric acid (in words)” value ([2]; beagles, oral, citric acid 30-40 mg) was “reached saturation” and the “blood concentrations or absorbability (in words)” value ([2]; beagles, oral, citric acid more than 30 mg per tablet) was “Good blood concentrations or absorbability”. It also gave an AUC at 6 h ([2]; read-out: AUC (area under a blood level versus time curve), 0 mg citric acid) of 11800 ng·h/mL, an AUC at 6 h ([2]; read-out: AUC (area under a blood level versus time curve), 10 mg citric acid) of 12300 ng·h/mL and an AUC at 6 h ([2]; read-out: AUC (area under a blood level versus time curve), 20 mg citric acid) of 17000 ng·h/mL. It also gave an AUC at 6 h ([2]; read-out: AUC (area under a blood level versus time curve), 30 mg citric acid) of 20500 ng·h/mL and an AUC at 6 h ([2]; read-out: AUC (area under a blood level versus time curve), 40 mg citric acid) of 20900 ng·h/mL.
